Data taken from paper PMC10525585, “Evaluation of the Antibacterial Effect of Aurone-Derived Triazoles on Staphylococcus aureus” (Antibiotics, 2023).
pIC50: −log10 of the molar value. Values joined by “and” are separate entries in the source; they are usually repeats but may differ in a detail not shown here. Equal entries are not always repeated. Where two headings read alike, the source gives them in different places.

Columns and labels:
[1] = system: methicillin-sensitive S. aureus ATCC 29213 (MSSA); assay: microbe, parasite or virus in culture; settings: Table S1; for pIC50: read-out: IC50 MSSA
Method: (§1) MRSA strain ATCC 43300 and MSSA strain S. aureus ATCC 29213 were grown on Tryptic Soy Agar (TSA) plates. Before use, an isolated colony was transferred from the TSA plate into Tryptic Soy Broth (TSB) and incubated 18–24 h in a humidified incubator at 37 °C. To adjust for a standard concentration of bacteria, the turbidity of the culture was measured at 600 nm, and its optical density (OD600) adjusted to be in the range 0.08–0.12 which equates to a concentration of approximately 1 × 10^8 CFU/mL. This suspension was diluted 1:20 in TSB. […] MRSA strain S. aureus ATCC 43300 and MSSA strain S. aureus ATCC 29213 were used for all testing in this study.
(§2) The assay for anti-Staphylococcal activity of AT compounds was prepared in 96-well transparent, U-bottom plates. A series of 2-fold dilutions of AT concentrations was tested in triplicate, with each well containing 10 µL of prepared bacterium and 90 µL of AT mixture in CAMHB. […] Blank wells with only CAMHB, a negative control well with 10 µL of bacterium solution mixed into 90 µL CAMHB, a vehicle control well with bacteria mixed into 1% DMSO in CAMBH, and a positive cell death control with vancomycin (1 µL of stock 2 mg/mL solution in 89 µL CAMHB with 10 µL of bacteria) were included. The plate was incubated for 18–24 h at 37 °C in a humidified incubator. Before measurement, PrestoBlue^TM dye (Invitrogen, Carlsbad, CA, USA) was added (10 µL per well) and incubated for 1 h with aluminum foil covering the plate. A CLARIOstar® (BMG LABTECH, Cary, NC, USA) multi-mode plate reader was used to measure the fluorescence at wavelengths of 560 nm for excitation and 590 nm for emission. Inhibitory concentration (IC50) values were defined as half inhibitory concentration and were computed using GraphPad Prism version 9.1 software.

[2] = system: methicillin-resistant S. aureus ATCC 43300 (MRSA); assay: Antibacterial assay (broth microdilution, PrestoBlue); type: cell-based, Staphylococcus aureus; settings: for MRSA inhibition (100µM) / pIC50: Table S1; for pIC50: read-out: IC50 MRSA
Method: as §1, §2

HeLa (ATCC CCL-2) cells = assay: Cytotoxicity assay (PrestoBlue)
Method: Human HeLa epithelial (ATCC CCL-2) and HepG2 liver epithelial (ATCC HB-8065) cell lines were used to determine toxicity of AT compounds for mammalian cells. The cells were grown in a complete culture medium of RPMI 1640 with 10% heat-inactivated fetal bovine serum (FBS) at 37 °C in 5% CO2 (95% room air) in a humidified incubator. Before use, attached cell monolayers, which had reached at least 90% confluency, were detached by trypsinization with trypsin-EDTA (0.25%) and resuspension in fresh complete culture media. For experiments, the stock concentration of 1 × 10^5 cells/mL (to achieve a final 1 × 10^4 cells/well concentration) was achieved by counting the trypsinized cells and adjusting to their final concentration for assays.
HeLa or HepG2 cells were pre-seeded into a 96-well transparent, flat bottom plate by adding a volume of 100 µL stock cell concentration (1 × 10^5 cells/mL) in complete culture media to each well. The plate was incubated overnight at 37 °C in a 5% CO2 (95% room air) humidified incubator. After the incubation and before mixing in the AT compounds, a 100 µL volume of fresh complete culture media was added to the pre-seeded wells. The 2-fold dilutions of AT compounds in triplicates were prepared on a separate 96-well plate. Once the dilution plate was prepared, dilutions were transferred into the pre-seeded plate to achieve the same concentrations of ATs as for the inhibition assay described above. The final inoculated plate was then returned to the 5% CO2 (95% room air) humidified incubator for an additional 24 h of incubation with the diluted ATs. Controls were blank wells containing only media, wells with cells and DMSO in complete culture media, and wells with cells and complete culture media only. Measurement of toxicity was analogous to the inhibition assay except that 20 µL of PrestoBlue^TM was used and the incubation was 3–6 h before reading with the plate-reader. Cytotoxicity concentration (CC50) was defined as the concentration where half of the cells remained viable and was computed using GraphPad Prism.

[3] = system: HepG2 (ATCC HB-8065) cells; assay: Cytotoxicity assay (PrestoBlue); type: cell-based, Human

Row | SMILES | MSSA inhibition (100µM) [1] | MRSA inhibition (100µM) [2] | further results
1 | N#Cc1ccc(-c2n[nH]nc2C(=O)c2ccccc2O)cc1 [AT100] | 58.77% | 96.47% and > 96% | pIC50 [2]: 4.41; CC50 (HeLa (ATCC CCL-2) cells; read-out: CC50 HeLa, Table S1): 19.1 µM; CC50 [3]: 70.7 µM
2 | N#Cc1ccccc1-c1n[nH]nc1C(=O)c1ccccc1O [AT102] | 0% | 35.77% | –
3 | O=C(c1ccccc1O)c1n[nH]nc1-c1ccc([N+](=O)[O-])cc1 [AT103] | 81.57% | 88.53% | pIC50 [2]: 5.40; CC50 [3]: 2.65 µM
4 | O=C(c1ccccc1O)c1n[nH]nc1-c1cccc([N+](=O)[O-])c1 [AT104] | – | 48.19% | –
5 | O=C(c1ccccc1O)c1n[nH]nc1-c1cccc(Cl)c1 [AT107] | 50.24% | 56.47% | –
6 | O=C(c1ccccc1O)c1n[nH]nc1-c1ccccc1Cl [AT108] | 30.63% | 8.46% | –
7 | O=C(c1ccccc1O)c1n[nH]nc1-c1ccc(I)cc1 [AT113] | 85.79% | 43.81% | –
8 | O=C(c1ccccc1O)c1n[nH]nc1-c1ccc(O)cc1 [AT117] | 0% | 19.39% | –
9 | N#Cc1ccc(-c2n[nH]nc2C(=O)c2cccc(Cl)c2O)cc1 [AT119] | 64.36% | 46.21% | –
10 | N#Cc1ccc(-c2n[nH]nc2C(=O)c2ccc(Cl)cc2O)cc1 [AT120] | 71.82% | 99.51% | pIC50 [1]: 5.22; pIC50 [2]: 5.38; CC50 (HeLa (ATCC CCL-2) cells): 17.2 µM; CC50 [3]: 38.1 µM
11 | N#Cc1ccc(-c2n[nH]nc2C(=O)c2c(O)cccc2Cl)cc1 [AT122] | 1.01% | 18.51% | –
12 | Cc1ccc(-c2n[nH]nc2C(=O)c2cccc(Cl)c2O)cc1 [AT123] | 99.45% | 23.62% | pIC50 [1]: 4.90; pIC50 [2]: 4.51; CC50 (HeLa (ATCC CCL-2) cells; read-out: CC50 HeLa, Table S1): 14.4 µM; CC50 [3]: 58.7 µM
13 | N#Cc1ccc(-c2n[nH]nc2C(=O)c2cccc(Br)c2O)cc1 [AT124] | 43.36% | 32.16% | pIC50 [2]: 4.87; CC50 [3]: 3.85 µM
14 | N#Cc1ccc(-c2n[nH]nc2C(=O)c2cc(F)ccc2O)cc1 [AT126] | 64.72% | 75.06% | –
15 | Cc1cc(O)c(C(=O)c2n[nH]nc2-c2cccc([N+](=O)[O-])c2)cc1C [AT130] | 58.75% | 43.97% | –
16 | Cc1ccc(O)c(C(=O)c2n[nH]nc2-c2cccc([N+](=O)[O-])c2)c1 [AT131] | 21.31% | 0% | –
17 | Cc1cccc(C(=O)c2n[nH]nc2-c2cccc([N+](=O)[O-])c2)c1O [AT132] | 83.03% | 57.99% | –
18 | Cc1ccc(-c2n[nH]nc2C(=O)c2cc(C)c(C)cc2O)cc1 [AT133] | 88.47% | 58.84% | –
19 | O=C(c1ccccc1O)c1n[nH]nc1-c1ccsc1 [AT134] | 10.83% | 0% | –
20 | O=C(c1ccccc1O)c1n[nH]nc1-c1cccs1 [AT135] | 46.76% | 5.42% | decrease of anti-MRSA activity ([2]; compared with AT137 (no bromine on the thiophene ring)): over 15 fold
21 | CC(=O)Nc1ccc(-c2n[nH]nc2C(=O)c2ccccc2O)cc1 [AT136] | 0% | 0% | –
